pIC50: −log10 of the molar value. Several values for one entry are separate records, joined by “and”; a condition that tells them apart may be missing. Identical values can stand only once. Like-named read-outs stand apart in the source and are kept apart here.
Columns and labels:
CYP2D6 = CYP2D6 (Homo sapiens (Human), UniProt P10635); assay: biochemical; type: biochemical
Protocol: (§1) The CYP450 inhibition assays utilized microsomes from insect cells expressing human recombinant individual cDNA-expressed CYP isoforms 3A4 and 2D6, as well as the fluorogenic probe that produces fluorescent metabolite. Standard inhibitors were co-incubated with fluorogenic substrates and their inhibitory potential (IC50) was determined. Assay conditions in terms of CYP450 protein concentration and time of incubation were standardized, enzyme kinetics parameters of each fluorescent probe substrate were estimated and IC50 values of inhibitors were determined and validated on different days to check reproducibility.
(§2) A 100 mM sodium phosphate buffer was prepared and adjusted to pH 7.4. In a separate falcon tube, a 2× enzyme/substrate (E/S) solution was prepared in phosphate buffer. The final concentration of CYP2D6 (CORNING®) and […] (AMMC) was 10 nM and 4 μM, and CYP3A4 (CORNING®) and 7-benzyloxy-4-(trifluoromethyl) coumarin (BFC) was 20 nM and 40 μM, respectively. In a separate falcon tube, a 2×NADPH regenerating system (NRS) was prepared in phosphate buffer. The final concentration for each component in the assay was as follows: • CYP2D6 assay: 0.008 mM NADPH, 3.3 mM glucose 6-phosphate, 0.4 U of glucose-6-phosphate dehydrogenase per mL
(§3) Both enzymatic assays were conducted in a 96-well microtiter plate (Black, CORNING® COSTAR®) with a final volume of 100 μL. Preparation of the plate began with the addition of 74 μL of the E/S in the first well, and 50 μL to all subsequent wells (from 2-11). The test compounds (1 μL) were dissolved in the first well to give the first row a final volume of 75 μL. A 1:3 serial dilution of the test compound was conducted by removing 25 μL from the first well and diluting it with the second and so forth until the tenth row. Final concentrations yielded a range from 200 μM-0.01 μM. Well no. 11 contained no inhibitor, and well no. 12 contained no enzyme. Both were used as controls for background fluorescence. The plate was incubated for 30 min at 37° C. After incubation, the reaction was initiated by the addition of 50 μL of the 2×NRS to each well.
Immediately (within 1 min) the fluorescence was measured using a microplate reader (BIOTEK® Synergy Neo2). CYP2D6 was monitored at Ex/Em=410/460 nm, and CYP3A4 monitored at Ex/Em=410/538 nm in kinetic mode that scanned every 5 min for 60 mins. Data was exported and analyzed using Graph Pad Prism 7. […] The IC50 value was derived after the data was fitted on a 10-point curve using a four-parameter logistic regression model.

CYP3A4 = CYP3A4 (Homo sapiens (Human), UniProt P08684); assay: Fluorometric CYP450 enzyme inhibition assay, CYP3A4; type: biochemical
CYP3A4, sequence (P08684 whole entry): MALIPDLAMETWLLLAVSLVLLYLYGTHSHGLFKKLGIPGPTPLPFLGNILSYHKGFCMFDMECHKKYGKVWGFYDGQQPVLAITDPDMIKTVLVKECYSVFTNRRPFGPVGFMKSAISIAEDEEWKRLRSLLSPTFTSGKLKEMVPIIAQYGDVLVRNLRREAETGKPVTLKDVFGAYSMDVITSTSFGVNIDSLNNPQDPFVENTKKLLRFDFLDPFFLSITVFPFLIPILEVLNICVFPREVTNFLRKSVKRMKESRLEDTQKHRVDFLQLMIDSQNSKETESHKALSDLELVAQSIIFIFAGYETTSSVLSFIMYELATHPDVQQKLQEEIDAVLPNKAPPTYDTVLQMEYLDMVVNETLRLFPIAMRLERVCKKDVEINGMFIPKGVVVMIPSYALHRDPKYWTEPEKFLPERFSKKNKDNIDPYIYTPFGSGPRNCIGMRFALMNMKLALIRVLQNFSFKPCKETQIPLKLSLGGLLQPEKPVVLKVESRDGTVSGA
Protocol: as §1, §2
as §3, with “The test compounds (1 μL) were dissolved in the first well to give the first row a final volume of 75 μL.” left out
Immediately (within 1 min) the fluorescence was measured using a microplate reader (BIOTEK® Synergy Neo2). […] Data was exported and analyzed using Graph Pad Prism 7. […] The IC50 value was derived after the data was fitted on a 10-point curve using a four-parameter logistic regression model.

[1] = Metabolic stability assay in human liver microsomes (HLM); type: in vitro ADME; conditions: NADPH, sampled 0-120 min; for HLM t1/2: 3 μM test compound; for half-life at 3 µM: pH 7.4, 3 μM test compound, read-out: HLM t1/2
Protocol: The LC-MS/MS analysis was performed using Agilent 1260 Infinity II HPLC, coupled with an Agilent G6460 triple quadrupole mass spectrometer (Agilent Technologies, USA). All the data were acquired employing Agilent 6460 Quantitative Analysis data processing software.
Reverse-phase HPLC separation for each compound was achieved either on an Agilent Porshell 120 EC-C8 column (2.1×50 mm, 2.7 μm), or on an Agilent Zorbax XDB C18 column (2.1×50 mm, 3.5 μm) with a mobile phase composed of methanol-water-formic acid or acetonitrile-water-formic acid (0.1%) at a flow rate of 0.5 mL/min (changes for some compounds). Each method was developed in the presence of an internal standard (ISTD) d5-7-ethoxy coumarin. The column temperature was maintained at 40° C. for most of the samples otherwise noted. The detection was operated in the Agilent JetStream electrospray positive ionization using multiple reaction monitoring mode (MRM).
Other MS conditions were as follows: dwell time 100 ms; gas flow 10 L/min; nebulizer pressure 45 psi; delta EMV 200 V; fragmentor voltage and collision energy for individual compounds vary.
Test compounds were dissolved in 100% DMSO or 100% MeOH to make 10 mM stock solutions. Verapamil (Sigma Aldrich) aided as a positive control and was dissolved in 100% DMSO to make 10 mM stock solutions. The 10 mM stock solution of test and control compounds were further diluted in potassium phosphate buffer (100 mM, pH 7.4) to 500 μM to ensure the organic solvent content was <0.2%. Human liver microsomes (HLMs) were purchased from Xenotech at 20 mg/mL. NADPH (Sigma Aldrich) 10 mM stocks were prepared in deionized water.
The HLM assay was prepared in a 1.5 mL Eppendorf tube with a final volume of 1100 μL for duplicate runs. Each reaction contained phosphate buffer (928.4 μL), liver microsomes (55 μL), and test compound resulting in a final concentration of 3 μM (6.6 μL of 500 μM). The reaction was initiated with 110 μL of 10 mM NADPH. Aliquots (100 μL) were removed in duplicate at 0, 15, 30, 60, 120 min (for prodrug compounds) and 0, 5, 10, 15, 30 min (verapamil, positive control compound) time intervals and quenched in cold […] of 100% methanol which contained internal standard (ISTD: d5-7-ethoxy coumarin 4 μM). Before centrifugation each of the aliquoted tubes were vortexed to make sure compounds were in the solution. The aliquots were centrifuged at 12,000 g for 5 min and the supernatant removed and placed in an LC-MS vial. Each time point was assessed using LC-MS and the area, based on the extracted ion, was integrated with respect to the ISTD. Positive controls were conducted at a final volume of 550 μL to give each time point in a single run. A no-NADPH negative control with test or control compound was performed in a single run (150 μL) at the longest time point. Controls were processed and analyzed like the test compounds. Each time point was run in duplicates followed by in-between blank washes to avoid the carryover and to equilibrate the column.

HEK293 cells = conditions: 50% cytotoxic concentration; italicized results: absence of human serum albumin
HIV = assay: microbe, parasite or virus in culture; type: cell-based; conditions: pseudoviral particles, HEK293 cells; italicized results: absence of human serum albumin; read-out: HIV IC50
[2] = human recombinant CYP2D6, AMMC substrate, read-out: CYP450 IC50 2D6
[3] = human recombinant CYP3A4, BFC substrate, read-out: CYP450 IC50 3A4

CYP2D6, sequence (P10635 whole entry, canonical isoform): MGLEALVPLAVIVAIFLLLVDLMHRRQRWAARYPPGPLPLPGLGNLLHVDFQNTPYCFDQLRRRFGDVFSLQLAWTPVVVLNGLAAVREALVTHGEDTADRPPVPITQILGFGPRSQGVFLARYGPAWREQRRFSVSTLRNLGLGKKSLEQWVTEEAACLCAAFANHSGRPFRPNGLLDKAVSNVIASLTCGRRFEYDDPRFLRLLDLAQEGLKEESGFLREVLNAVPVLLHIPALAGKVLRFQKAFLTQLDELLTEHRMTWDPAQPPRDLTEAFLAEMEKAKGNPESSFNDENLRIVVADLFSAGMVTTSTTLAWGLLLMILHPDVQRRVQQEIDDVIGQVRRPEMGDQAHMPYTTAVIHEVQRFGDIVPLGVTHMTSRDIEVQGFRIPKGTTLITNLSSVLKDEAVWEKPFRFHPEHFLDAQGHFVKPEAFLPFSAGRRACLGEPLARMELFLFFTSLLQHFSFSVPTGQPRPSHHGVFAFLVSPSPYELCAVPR

| Structure (SMILES) | pIC50 (CYP2D6; [2]) | pIC50 (CYP3A4; [3]) | HLM t1/2 [1] [h] | CC50 (HEK293 cells) [µM] | pIC50 (CYP2D6) | pIC50 (CYP3A4) | half-life at 3 µM [1] [h] | pIC50 (HIV) |
| --- | --- | --- | --- | --- | --- | --- | --- | --- |
| C[C@H](Cn1cnc2c(N)ncnc21)OCP(=O)(O)OCCCCCCCCCCCCCCCCCCCC(F)(F)F.N [NP-PD-105, ammonium [(1R)-2-(6-aminopurin-9-yl)-1-methyl-ethoxy]methyl-(20,20,20-trifluoroicosoxy)phosphinate] | < 4.70 | < 4.70 | >2 | 72.4 | – | – | – | – |
| C[C@H](Cn1cnc2c(N)ncnc21)OCP(=O)(O)OCCCOCCCCCCCCCCCCCCCC(F)(F)F.N [NP-PD-158, Ammonium [(1R)-2-(6-aminopurin-9-yl)-1-methyl-ethoxy]methyl-[3-(16,16,16-trifluorohexadecoxy)propoxy]phosphinate] | < 4.70 | < 4.70 | >2 | > 100 | – | – | – | – |
| C#CCCCCCCCCCCCCCOP(=O)(O)CO[C@H](C)Cn1cnc2c(N)ncnc21.N [EJM-8-006, Ammonium pentadec-14-yn-1-yl (R)-(((1-(6-amino-9H-purin-9-yl)propan-2-yl)oxy)methyl)phosphonate] | 4.07 | 4.26 | 1.57 | > 100 | – | – | – | – |
| N.[2H]C([2H])([2H])CCCCCCCCCCCCCCCOP(=O)(O)CO[C@H](C)Cn1cnc2c(N)ncnc21 [EJM-8-036, Ammonium hexadecyl-16,16,16-d3 (R)-(((1-(6-amino-9H-purin-9-yl)propan-2-yl)oxy)methyl)phosphonate] | – | – | – | – | 4.69 | 4.06 | 0.35 | – |
| COC(=O)CCCCCCCCCCCCCCCSCCCOP(=O)(O)CO[C@H](C)Cn1cnc2c(N)ncnc21.N [MD-1-124, Ammonium 3-((16-methoxy-16-oxohexadecyl)thio)propyl (R)-(((1-(6-amino-9H-purin-9-yl)propan-2-yl)oxy)methyl)phosphonate] | 4.72 | 4.39 | – | – | – | – | 0.6 | – |
| C#CCCCCCCCCCCCCCCOCCCOP(=O)(O)CO[C@H](C)Cn1cnc2c(N)ncnc21.N [MD-5-72, Ammonium 3-(hexadec-15-yn-1-yloxy)propyl (R)-(((1-(6-amino-9H-purin-9-yl)propan-2-yl)oxy)methyl)phosphonate] | < 4.70 | < 4.70 | >2 | > 100 | – | – | – | – |
| C[C@H](Cn1cnc2c(N)ncnc21)OCP(=O)(O)OCCCSCCCCCCCCCCCCC#C[Si](C)(C)C.N [MD-1-187, Ammonium 3-((14-(trimethylsilyl)tetradec-13-yn-1-yl)thio)propyl (R)-(((1-(6-amino-9H-purin-9-yl)propan-2-yl)oxy)methyl)phosphonate] | < 4.70 | < 4.70 | – | – | – | – | > 2 | – |
| C[C@H](Cn1cnc2c(N)ncnc21)OCP(=O)(O)OCCCCCCCCCCCCCCCCCC#CC(F)(F)F.N [NP-PD-102, Ammonium [(1R)-2-(6-aminopurin-9-yl)-1-methyl-ethoxy]methyl-(20,20,20-trifluoroicos-18-ynoxy)phosphinate] | < 4.70 | < 4.70 | >2 | 78.7 | – | – | – | – |
| C#CCCCCCCCCCCCCCCCCOP(=O)(O)CO[C@H](C)Cn1cnc2c(N)ncnc21.N [Compound B1-1-024, Ammonium octadec-17-yn-1-yl ((((R)-1-(6-amino-9H-purin-9-yl)propan-2-yl)oxy)methyl)phosphonate] | 5.62 | 4.73 | >2 | > 100 | – | – | – | – |
| C[C@H](Cn1cnc2c(N)ncnc21)OCP(=O)(O)OCCCCCCCCCCCCCCCCC#C[Si](C)(C)C.N [NP-PD-042, Ammonium [(1R)-2-(6-aminopurin-9-yl)-1-methyl-ethoxy]methyl-(18-trimethylsilyloctadec-17-ynoxy)phosphinate] | 4.57 | 4.57 | >2 | 68.1 | – | – | – | – |
| CCCCCCCCCCCCCCCCSCCCOP(=O)(O)CO[C@H](C)Cn1cnc2c(N)ncnc21 [MD-1-123, Ammonium 3-(hexadecylthio)propyl (R)-(((1-(6-amino-9H-purin-9-yl)propan-2-yl)oxy)methyl) phosphonate] | 3.96 | 4.24 | – | – | – | – | 0.7 | – |
| C#CCCCCCCCCCCCCCCCCCCOP(=O)(O)CO[C@H](C)Cn1cnc2c(N)ncnc21.N [Compound B1-1-065, Ammonium icos-19-yn-1-yl (R)-(((1-(6-amino-9H-purin-9-yl)propan-2-yl)oxy)methyl)phosphonate] | 4.66 | < 4.30 | >2 | 99.5 | – | – | – | – |
| C[C@H](Cn1cnc2c(N)ncnc21)OCP(=O)(O)O [TFV, tenofovir, reference compound] | < 4.30 | 4.34 | >2 | – | – | – | – | 5.69 and 5.80 |
| C[C@H](Cn1cnc2c(N)ncnc21)OCP(=O)(O)OCCCOCCCCCCCCCCCCCC#CC(F)(F)F.N [NP-PD-149, Ammonium [(1R)-2-(6-aminopurin-9-yl)-1-methyl-ethoxy]methyl-[3-(16,16,16-trifluorohexadec-14-ynoxy)propoxy]phosphinate] | < 4.70 | 4.92 | >2 | > 100 | – | – | – | – |
